According to patent US20230398077A1, “SILICASOME NANOCARRIER FOR METAL-BASED DRUG DELIVERY” (The Regents of the University of California, priority 2020, published 2023):

How the values were obtained:
[1] = Pt drug loading of MSNP/silicasome (EE %, LC %) by ICP-MS/ICP-OES; format: physicochemical; details: DACHPt incubated with bare MSNP, Pt:MSNP 1:5 w/w
Experimental: In various embodiments the silica nanoparticles are loaded with platinum-based drugs using a combination of coordination and electrostatic interactions. Since the silanol group density on the silica nanoparticle surface(s) (e.g., pore surfaces) an important role in the surface binding of the activated platinum compound (e.g., DACHPt) (see FIG. 2), it is desirable to control the pH during drug loading. Thus, the loading efficiency and capacity was optimized through control of. pH, incubation time, the soaking process, and variation of the drug/particle ratio, etc. Thus, for example, 20 mg MSNP resuspend in 1 mL HEPES buffer (0.1 M, pH 8.5) was mixed with DACHPt complex (4 mg Pt, equal to 8 mg OX). The mixture was sonicated in water bath sonication for 10 mins and then spun down at 15 K rpm for 10 mins. Non-bound Pt in the supernatant, as detected by ICP-OES was used to determine the loading capacity [%=(total Pt—Pt in supernatant)/amount of MSNP*100} and loading efficiency [%=(total Pt—Pt in supernatant)/total Pt*100].
Sixty-five nm bare MSNPs were synthesized at 18 L scale and purified by extensive acidic ethanol washing to remove the CTAC detergent, as reported previously^[4b]. In order to determine the optimal loading condition, we experimented with multiple rounds of drug loading to find the optimal pH, incubation time, sonication condition, and particle/drug feed ratio, etc. Details of the protocol optimization appear online (FIG. 8). In the case of DACHPt loading, purified MSNP (20 mg) from ethanol stock solution was spun at 15,000 rpm for 15 min, and resuspend in 1 mL HEPES buffer (200 mM, pH 8.5). The MSNP suspension was spun down and resuspend in 0.5 mL HEPES buffer (200 mM, pH 8.5). Then, 160 μL DACHPt solution (25 mg/mL, e.q. Pt) and 340 μL pure H2O were added to the MNSP suspension (40 mg/mL, 0.5 mL). The mixture was sonicated for 10 min. In a sonication water bath. The DACHPt-laden MSNPs were spun down at 15,000 rpm for 12 min, followed by collecting the supernatant for Pt elemental analysis by ICP-MS. […]

calreticulin (CRT) = assay: Surface CRT expression in KPC cells (immunofluorescence, flow cytometry); format: cell-based, murine; details: 500 μM, 24 h
Experimental: Surface CRT expression was visualized by immunofluorescence (IF) staining using an anti-CRT primary antibody, followed by the incubation with Alex488 conjugated secondary antibody. Briefly, ˜1.5×10^4 KPC cells were seeded into an 8-well confocal chamber slide. After 24 h, the cell culture medium was replaced with fresh medium containing the chemo agents, following which the cells were incubated for another 24 h. The cells were washed twice in cold PBS and fixed with 4% paraformaldehyde (PFA) at room temperature (r.t.) for 15 mins. After fixation, the cells were washed twice with cold PBS and blocked with 1% BSA in PBS for 0.5 h. The cells were incubated with anti-CRT primary antibody (ab2907, 1:200) in 200 μL blocking solution at 4° C. overnight, followed by washing with PBS and staining with secondary antibody (Alex488 conjugated goat anti-rabbit secondary antibody, A-11008, 1:1000) together with the nuclear dye, Hoechst 33342, at r.t. for 1 h. The cells were washed with PBS, then imaged by using a Leica SP8-MD confocal microscope under the 100× objective lens.
Surface CRT expression was measured by flow cytometry as previously described^[24a]. Briefly, 7.5×10^4 KPC cells were seeded into 24-well plates. […] After washing in cold PBS, the cells were assessed in a LSRII flow cytometer (BD Biosciences). […]

HMGB1 = HMGB1 release from KPC cells (ELISA); format: cell-based, murine; details: 500 μM, 24 h
Experimental: Surface CRT expression was measured by flow cytometry as previously described^[24a]. Briefly, 7.5×10^4 KPC cells were seeded into 24-well plates. After cell attachment, KPC cells were treated with free oxaliplatin and DACHPt (500 μM), for 24 h. The loosely attached cells were combined with trypsin-treated at adherent cells. The cells were washed in cold PBS and then stained on ice with a primary anti-CRT antibody (Abcam, ab2907, 1:140) in 200 μL BD staining buffer for 0.5 h. The cells were washed in cold PBS and stained with an […] secondary antibody (LifeScience Technologies #A21244) for 30 min on ice. After washing in cold PBS, the cells were assessed in a LSRII flow cytometer (BD Biosciences). In the same experiment, the cell culture media were spun down to collect the supernatants for HMGB1 detection by an ELISA kit (Catalog #ST51011, IBL International GmbH), according to the manufacture's instruction.

KPC cells [2] = assay: Vaccination study with chemo-induced dying KPC cells, re-challenge on contralateral side; details: for infiltration by CD8^+ T-cells / number of Foxp3^+ regulatory T cell (Treg) / increase in CD8^+/Tregs cell ratio compared to PBS control: IHC of contralateral tumors; for increase in CD8^+/Tregs cell ratio compared to PBS control: day 26; for tumor growth on the contralateral side: vaccination with drug-treated dying KPC cells, p<0.05
Experimental: In order to determine whether these in vitro ICD markers actually represent an in vivo immunogenic effect as specified by a consensus ICD document^[26], we also performed a vaccination study in a syngeneic KPC animal model. Suspensions of dying tumor cells, generated by oxaliplatin or DACHPt treatment for 24 h, were subcutaneously injected on 2 occasions (7 days apart) in left flank of immunocompetent B6129SF1/J mice. This was followed by tumor re-challenge on the contralateral side using untreated KPC cells (FIG. 4, panel C).
Moreover, we also validated the ICD effect of DACHPt in a vaccination experiment, using a published protocol^[26]. Briefly, eight million KPC cells were seeded in a tissue culture dish. After cellular attachment, DACHPt or free oxaliplatin (500 μM) were added for 24 h. Cells were collected and washed before being resuspended in 0.8 mL cold PBS. For vaccination, each mouse received subcutaneous injection (SC) of a 100 μL suspension of chemo-treated cells in the right flank. Control animals received PBS only. The vaccination was repeated after 7 days. Fourteen days after the 1st vaccination, the same mice received the SC injection of healthy KPC cells (1×10^6 cells) in the contralateral side. Tumor growth was measured by a digital caliper every 2-3 days. At the conclusion of the vaccination experiment (Day 26), animals were sacrificed and the tumors collected for IHC immunophenotyping of CD8^+ T cells and FoxP3^+ Treg cells. Primary antibodies to CD8 (#14-0808-82, 1:100) and FoxP3 (#13-5773-82, 1:200) were purchased from ThermoFisher. […] The slides were scanned and images were assessed by using Aperio ImageScope software (Leica).

orthotopic KPC tumor [3] = assay: Anti-PDAC efficacy in orthotopic KPC model; format: in vivo, B6129SF1/J mice; details: Pt 2 mg/kg IV every 3 days, 3 administrations, day 17
Experimental: An efficacy study was performed by IV injection of the silicasome carrier eight days after orthotopic KPC implantation in the pancreas of B6129SF1/J mice (FIG. 3, panel D). This corresponds to beginning the treatment at a primary tumor size of 5-10 mm in the absence of macro-metastases^[21]. IV injections were repeated every 3 days for a total of 3 repeats. The control groups included animals receiving IV saline or free oxaliplatin. The tumor growth at the primary and metastatic sites was followed by IVIS bioluminescence imaging up to conclusion of the experiment on day 17 (FIG. 3, panel D, right).
KPC-luc cells (˜1×10^6) were orthotopically injected into the pancreas in mice. […] The control includes saline as well as free oxaliplatin. This dose arrangement is in agreement with the literature^[27]. Tumor-bearing mice received IV injection of the indicated therapy every 3 days for a total of 3 administrations. Before animal sacrifice (72 h post the last IV injection), the mice received intraperitoneal injection of D-luciferin, followed by ex vivo bioluminescence imaging using an IVIS imaging system. […] The H&E slides for toxicity assessment were read in a blinded fashion by an experienced veterinary pathologist.

orthotopic KPC tumor [4] = assay: Survival study in orthotopic KPC model w/wo anti-PD-1; format: in vivo, mice; details: agent alone; Pt 2 mg/kg IV, anti-PD-1 100 μg IP; Kaplan-Meier, Log Rank
Experimental: Kaplan-Meier plots were used to display the survival rate of the different animal groups (n=5-7, *p<0.05, Log Rank test).
Tumor-bearing mice were randomly assigned into 6 groups (n=5-7) and received IV injection of Pt drug formulations twice per week as designed in FIG. 6. Anti-PD-1 antibody was injected at 100 μg/animal intraperitoneally two days later after each Pt chemo injection. To assess survival rate, animals were monitored daily up to the stage of spontaneous death or approaching moribund status based on the criteria of extensive abdominal ascites, severe dehydration, significant weight loss (>20%), extreme weakness or inactivity^[4, 21, 30] The survival data were plotted as Kaplan-Meier curves, followed by statistical analysis by Log Rank testing (Mantel-Cox), using GraphPad Prism 7.00 software.

KPC cells [5] = assay: Cytotoxicity MTS assay in KPC cells; details: 500 μM, 24 h
Experimental: The DACHPt silicasome was tested in a list of cancer cell lines to determine the in vitro killing effect, using a MTS assay. […] The MTS assay was conducted with free DACHPt and oxaliplatin as controls. Data are expressed as mean±SD. n=3.
The MTS assay was performed at 24 h after the treatment with oxaliplatin or DACHPt in KPC cells. Data represents mean±SD, n=3.
Cytotoxicity testing of free Pt drugs or drug-laden silicasomes was performed by using a standard MTS assay (CellTiter 96© AQueous One Solution Cell Proliferation Assay, Promega). PDAC cells were plated at a density of 5×10^3 cells per well in a 96-well plate and cultured for 24 h before the medium was replaced with fresh medium containing free OX, free DACHPt or DACHPt laden silicasome at indicated concentrations. Non-treated cells were used as control. After treatment for 48 h, the medium was replaced with 100 μL of fresh medium containing MTS solution (5:1, v/v medium/CellTiter 96© Aqueous stock solution), and the cells were further cultured at 37° C. for 1 h. The absorbance of the culture wells at 490 nm was recorded by a microplate reader (M5e, Molecular Device, USA). Wells receiving the MTS solution without cells were used as blank. The relative cell viability (%) is [(the absorption of treated well−blank)/(the absorption of control well−blank)]×100%.

[6] = PK study, plasma Pt by ICP-MS after single IV injection; details: Pt dose 4.95 mg/kg, one-compartment model
Experimental: IV injection of non-encapsulated oxaliplatin (at identical Pt molar dose) served as the free drug control because free DACHPt leads to drug precipitates when interacting with Cl ions in the blood^[7b]. Blood collection was performed at 5 mins, 3 h, 6 h, 24 h and 48 h after IV injection, followed by ICP-MS quantification.
The PK study was performed on 10-12-week-old healthy female B6129SF1/J mice. […] After separation of the plasma fraction, the plasma samples were digested with HCl:HNO3 3:1, v/v) in a hot-block, before replenishment in 2% HNO3 for ICP-MS analysis of the Pt content. The PK data were analyzed by PKSolver software, using a one-compartment model^[4].

[7] = Safety assessment by H&E histology of bone marrow and major organs (efficacy study)
Experimental: KPC-luc cells (˜1×10^6) were orthotopically injected into the pancreas in mice. […] The control includes saline as well as free oxaliplatin. […] Tumor-bearing mice received IV injection of the indicated therapy every 3 days for a total of 3 administrations. Before animal sacrifice (72 h post the last IV injection), the mice received intraperitoneal injection of D-luciferin, followed by ex vivo bioluminescence imaging using an IVIS imaging system. Primary tumor and major organs (e.g. sternum, heart, liver, spleen, lung and kidneys) were harvested and fixed in 10% formalin, followed by paraffin embedding and sectioning to provide 4 μm slices for histological analysis in the UCLA Translational Pathology Core Laboratory (TPCL). H&E staining was performed to look at the pathological abnormality in mice receiving different treatments. The H&E slides for toxicity assessment were read in a blinded fashion by an experienced veterinary pathologist.

encapsulation efficiency (EE %) ([1]; neutral pH 7.4) | encapsulation efficiency (EE %) ([1]; pH 8.5, before lipid coating) | encapsulation efficiency (EE %) ([1]; weak acidic pH 5.5) | SMILES | cell surface fluorescence of CRT (calreticulin (CRT)) | HMGB1 release into the supernatant (HMGB1) | infiltration by CD8^+ T-cells (KPC cells [2]) | number of Foxp3^+ regulatory T cell (Treg) (KPC cells [2]) | increase in CD8^+/Tregs cell ratio compared to PBS control (KPC cells [2]) | tumor free mice (out of 6) (KPC cells [2]; vaccination study) | tumor growth on the contralateral side (KPC cells [2]) | tumor inhibition (primary tumor weight) (orthotopic KPC tumor [3]) | survival outcome (orthotopic KPC tumor [4]) | killing of cells / compromised cell viability (MTS) (KPC cells [5]) | circulatory half-life (t1/2) [6] | histology of major organs (liver, spleen, kidney, lung, heart) [7] | reduction in cellularity of the hemopoetic cells in the bone marrow [7]
60% | ~75% | 25% | NC1CCCCC1N.[Pt+2] (stereo not shown) [DACHPt, (1,2-diaminocyclohexane)platinum(II)] | significant increase | increase of released HMGB1 | increase in infiltration | reduced number | 6 fold | 1 | growth retardation | – | – | – | – | – | –
– | – | – | O=C1[O][Pt]2([NH][C@@H]3CCCC[C@H]3[NH]2)[O]C1=O [oxaliplatin] | significant increase | increase of released HMGB1 | increase in infiltration | reduced number | 4.8 fold | – | growth retardation | ~5% | No obvious benefit | 70% | 21 ± 10.2 min | No major histological abnormalities | > 50%
